Measurements as given in patent US4021434A, “Sodium β-[2,6-dimethyl-3,5-bis(ethoxycarbonyl)-4-(3-nitrophenyl)-1,4-dihyd ropyridine-1-yl]ethyl sulfate” (Yamanouchi Pharmaceutical Co., Ltd., priority 1972, dated 1977).

How the values were obtained:
cerebral circulation = assay: Effect on cerebral circulation in dogs anesthetized by chloralose-urethane (Experiment 1, Table I); type: in vivo
[1] = test system: vertebral blood flow and coronary blood flow; assay: Effects on mean blood pressure, vertebral blood flow and coronary blood flow, intravenous, dogs anesthetized with pentobarbital (Experiment 3, Table 3); type: in vivo
Protocol: Effects on mean blood pressure (hereinafter referred to as MBP), vertebral blood flow (hereinafter referred to as VBF) and coronary blood flow (hereinafter referred to as Cor.BF), when administered intravenously:
By using dogs anesthetized with pentobarbital, VBF and Cor. BF were measured with an electromagnetic flowmeter. Blood pressure at the femoral artery was measured.

in vivo = type: in vivo; details: mouse, in vivo, mice
[2] = test system: hypertensive action of norepinephrine; assay: Antagonism against hypertensive action of norepinephrine, intra-duodenal administration (Experiment 4, Table 5); type: in vivo, dogs
Protocol: Drugs were administered intra-duodenally.

[3] = Effects on MBP and partial oxygen pressure (PO2) in coronary venous blood, intra-duodenal administration (Experiment 4, Table 4)
Protocol: (§1) Antagonism against hypertensive action of norepinephrine and effects on MBP and partial oxygen pressure (referred to hereinafter as PO2) in coronary venous blood, in case of intra-duodenal administration:
(§2) By using dogs anesthetized by pentobarbital, blood pressure at the femoral artery was measured. […] Antagonism against hypertensive active in case of norepinephrine administration (3g/kg i.v.) was investigated also. Drugs were administered intra-duodenally.

[4] = test system: partial oxygen pressure in coronary venous blood; assay: as above
Protocol: as §1, §2

mice = assay: in vivo; type: in vivo
physchem = details: water
[5] = 1 mg/kg i.d., 1/2 hour post-administration
[6] = 1 mg/kg i.d., 1 hour post-administration
[7] = 1 mg/kg i.d., 2 hour post-administration
[8] = 1 mg/kg i.d., 3 hour post-administration
[9] = 1 mg/kg i.d., 5 hour post-administration
[10] = 1 mg/kg i.d., 8 hour post-administration
[11] = 1 mg/kg i.d., Pre-administration (baseline)
[12] = 10 mg/kg i.d., 1/2 hour post-administration
[13] = 10 mg/kg i.d., 1 hour post-administration
[14] = 10 mg/kg i.d., 2 hour post-administration
[15] = 10 mg/kg i.d., 3 hour post-administration
[16] = 10 mg/kg i.d., 5 hour post-administration
[17] = 10 mg/kg i.d., 8 hour post-administration
[18] = 10 mg/kg i.d., Pre-administration (baseline)

With COC(=O)C1=C(C)NC(C)=C(C(=O)OC)C1c1ccccc1[N+](=O)[O-] [C] the “Carotid blood flow Duration” value (cerebral circulation; 0.01 mg/Kg i.v.) was 30 min, the “Carotid blood flow Increase” value (cerebral circulation; 0.01 mg/Kg i.v.) was 90% and the “Mean Blood Pressure Decrease” value (cerebral circulation; 0.01 mg/Kg i.v.) was 28%. The “Regional Cerebral blood flow Duration” value (cerebral circulation; 0.01 mg/Kg i.v.) was 30 min, the “Regional Cerebral blood flow Increase” value (cerebral circulation; 0.01 mg/Kg i.v.) was 8.2 μV and the “Vertebral Blood Flow Increase” value (cerebral circulation; 0.01 mg/Kg i.v.) was 120%. For the same compound, the “Vertebral blood flow Duration” value (cerebral circulation; 0.01 mg/Kg i.v.) was 30 min.
For CCOC(=O)C1=C(C)NC(C)=C(C(=O)OCC)C1c1ccccc1C(F)(F)F [E, 3,5-Dicarboethoxy-1,4-dihydro-2,6-dimethyl-4-(2-trifluoromethylphenyl)pyridine], the “Coronary Blood Flow Duration” value ([1]; 0.001 mg/kg i.v.) was 10 min, the “Mean Blood Pressure Decrease” value ([1]; 0.001 mg/kg i.v.) was -16 ΔmmHg and the “Vertebral Blood Flow Increase” value ([1]; 0.001 mg/kg i.v.) was 74 Δ%. The “Coronary Blood Flow Duration” value ([1]; 0.01 mg/kg i.v.) was 45 min, the “Mean Blood Pressure Decrease” value ([1]; 0.01 mg/kg i.v.) was -44 ΔmmHg and the “Vertebral Blood Flow Increase” value ([1]; 0.01 mg/kg i.v.) was 144 Δ%.
For CCOC(=O)C1=C(C)NC(C)=C(C(=O)OCC)C1c1cccc([N+](=O)[O-])c1 [B], the “Carotid blood flow Duration” value (cerebral circulation; 0.01 mg/Kg i.v.) was 30 min, the “Carotid blood flow Increase” value (cerebral circulation; 0.01 mg/Kg i.v.) was 83% and the “Mean Blood Pressure Decrease” value (cerebral circulation; 0.01 mg/Kg i.v.) was 29%. For the same compound, the “Regional Cerebral blood flow Duration” value (cerebral circulation; 0.01 mg/Kg i.v.) was 30 min, the “Regional Cerebral blood flow Increase” value (cerebral circulation; 0.01 mg/Kg i.v.) was 9.2 μV and the “Vertebral Blood Flow Increase” value (cerebral circulation; 0.01 mg/Kg i.v.) was 130%. The “Vertebral blood flow Duration” value (cerebral circulation; 0.01 mg/Kg i.v.) was 30 min, the LD50 (in vivo; ip) was 525 mg/kg and the LD50 (in vivo; po) was 5000 mg/kg. For the same compound, the “Coronary Blood Flow Duration” value ([1]; 0.001 mg/kg i.v.) was 5 min, the “Coronary Blood Flow Increase” value ([1]; 0.001 mg/kg i.v.) was 58 Δ% and the “Mean Blood Pressure Decrease” value ([1]; 0.001 mg/kg i.v.) was -15 ΔmmHg. The “Vertebral Blood Flow Increase” value ([1]; 0.001 mg/kg i.v.) was 20 Δ%, the “Coronary Blood Flow Duration” value ([1]; 0.01 mg/kg i.v.) was 30 min and the “Coronary Blood Flow Increase” value ([1]; 0.01 mg/kg i.v.) was 141 Δ%. For the same compound, the “Mean Blood Pressure Decrease” value ([1]; 0.01 mg/kg i.v.) was -35 ΔmmHg, the “Vertebral Blood Flow Increase” value ([1]; 0.01 mg/kg i.v.) was 144 Δ% and the “Percent inhibition against increase of blood pressure caused by norepinephrin” value (from here on “Percent inhibition against increase”) [2, 5] was 79%. The “Percent inhibition against increase” value [2, 6] was 78%, the “Percent inhibition against increase” value [2, 7] was 79% and the “Percent inhibition against increase” value [2, 8] was 77%. For the same compound, the “Percent inhibition against increase” value [2, 9] was 63%, the “Percent inhibition against increase” value [2, 10] was 48% and the “water-solubility (in words)” value (Water-solubility) was “almost unsoluble in water”. The MBP [3, 11] was 101, the MBP ([3]; 1 mg/kg i.d., change, 1/2 hour post-administration) was -39 and the MBP ([3]; 1 mg/kg i.d., change, 1 hour post-administration) was -43. For the same compound, the MBP ([3]; 1 mg/kg i.d., change, 2 hour post-administration) was -42, the MBP ([3]; 1 mg/kg i.d., change, 3 hour post-administration) was -32 and the MBP ([3]; 1 mg/kg i.d., change, 5 hour post-administration) was -27. The MBP ([3]; 1 mg/kg i.d., change, 8 hour post-administration) was -12, the “PO2 in coronary venous blood” value [4, 5] was 34.6 and the “PO2 in coronary venous blood” value [4, 6] was 37.7. The “PO2 in coronary venous blood” value [4, 7] was 39.3, the “PO2 in coronary venous blood” value [4, 8] was 38.9 and the “PO2 in coronary venous blood” value [4, 9] was 32.7. The “PO2 in coronary venous blood” value [4, 10] was 25.0 and the “PO2 in coronary venous blood” value [4, 11] was 17.4.
For CCOC(=O)C1=C(C)N(CC(=O)O)C(C)=C(C(=O)OCC)C1c1cccc([N+](=O)[O-])c1 [sodium α-[3,5-bis(ethoxycarbonyl)-2,6-dimethyl-4-(3'-nitrophenyl)-1,4-dihydro-1-pyridinyl]acetate], the “water-solubility (in words)” value (Water-solubility) was “easily soluble in water”.
With COc1ccc(Cc2nccc3cc(OC)c(OC)cc23)cc1OC [Papaverine] the “Carotid blood flow Duration” value (cerebral circulation; 1.0 mg/Kg i.v.) was 6 min, the “Carotid blood flow Increase” value (cerebral circulation; 1.0 mg/Kg i.v.) was 120% and the “Mean Blood Pressure Decrease” value (cerebral circulation; 1.0 mg/Kg i.v.) was 18%. The “Regional Cerebral blood flow Duration” value (cerebral circulation; 1.0 mg/Kg i.v.) was 7 min, the “Regional Cerebral blood flow Increase” value (cerebral circulation; 1.0 mg/Kg i.v.) was 8.2 μV and the “Vertebral Blood Flow Increase” value (cerebral circulation; 1.0 mg/Kg i.v.) was 120%. The “Vertebral blood flow Duration” value (cerebral circulation; 1.0 mg/Kg i.v.) was 6 min.
For CCOCN1C(C)=C(C(=O)OCC)C(c2cccc([N+](=O)[O-])c2)C(C(=O)OCC)=C1C [A, diethyl 1-ethoxymethyl-2,6-dimethyl-4-(3-nitrophenyl)-1,4-dihydropyridine-3,5-dicarboxylate], the “Carotid blood flow Duration” value (cerebral circulation; 0.1 mg/Kg i.v.) was 120 min, the “Carotid blood flow Increase” value (cerebral circulation; 0.1 mg/Kg i.v.) was 80% and the “Mean Blood Pressure Decrease” value (cerebral circulation; 0.1 mg/Kg i.v.) was 9%. For the same compound, the “Regional Cerebral blood flow Duration” value (cerebral circulation; 0.1 mg/Kg i.v.) was 120 min, the “Regional Cerebral blood flow Increase” value (cerebral circulation; 0.1 mg/Kg i.v.) was 8.6 μV and the “Vertebral Blood Flow Increase” value (cerebral circulation; 0.1 mg/Kg i.v.) was 120%. For the same compound, the “Vertebral blood flow Duration” value (cerebral circulation; 0.1 mg/Kg i.v.) was 100 min, the “MLD (Minimum lethal dose)” value (mice; i.p.) was over 3000 mg/kg and the “MLD (Minimum lethal dose)” value (mice; p.o.) was over 5000 mg/kg.
With CCOC(=O)C1=C(C)N(CCOS(=O)(=O)[O-])C(C)=C(C(=O)OCC)C1c1cccc([N+](=O)[O-])c1.[Na+] [D, sodium β-[2,6-dimethyl-3,5-bis(ethoxycarbonyl)-4-(3-nitrophenyl)-1,4-dihydropyridine-1-yl]-ethyl sulfate] the “Coronary Blood Flow Duration” value ([1]; 0.1 mg/kg i.v.) was 20 min, the “Coronary Blood Flow Increase” value ([1]; 0.1 mg/kg i.v.) was 67 Δ% and the “Mean Blood Pressure Decrease” value ([1]; 0.1 mg/kg i.v.) was -5 ΔmmHg. For the same compound, the “Vertebral Blood Flow Increase” value ([1]; 0.1 mg/kg i.v.) was 21 Δ%, the “Coronary Blood Flow Duration” value ([1]; 0.3 mg/kg i.v.) was 60 min and the “Coronary Blood Flow Increase” value ([1]; 0.3 mg/kg i.v.) was 72 Δ%. For the same compound, the “Mean Blood Pressure Decrease” value ([1]; 0.3 mg/kg i.v.) was -12 ΔmmHg, the “Vertebral Blood Flow Increase” value ([1]; 0.3 mg/kg i.v.) was 75 Δ% and the “Coronary Blood Flow Duration” value ([1]; 1 mg/kg i.v.) was at least 120 min. For the same compound, the “Coronary Blood Flow Increase” value ([1]; 1 mg/kg i.v.) was 137 Δ%, the “Mean Blood Pressure Decrease” value ([1]; 1 mg/kg i.v.) was -35 ΔmmHg and the “Vertebral Blood Flow Increase” value ([1]; 1 mg/kg i.v.) was 169 Δ%. For the same compound, the “effects on cerebral and coronary blood flow and blood pressure (in words)” value ([1]; administered intravenously) was “excellent effects as increasing the cerebral blood flow and coronary blood flow and at the same time showed hypotensive activity”, the “duration of activities (in words)” value ([1]; administered intravenously, compared with known compounds) was “prolonged for a long period of time when compared with known compounds” and the “Percent inhibition against increase” value [2, 12] was 69%. The “Percent inhibition against increase” value [2, 13] was 84%, the “Percent inhibition against increase” value [2, 14] was 89% and the “Percent inhibition against increase” value [2, 15] was 89%. For the same compound, the “Percent inhibition against increase” value [2, 16] was 85%, the “Percent inhibition against increase” value [2, 17] was 79% and the solubility (physchem) was about 400 mg/mL. The “water-solubility (in words)” value (Water-solubility) was “excellent water-solubility”, the MBP [3, 18] was 110 and the MBP ([3]; 10 mg/kg i.d., change, 1/2 hour post-administration) was -11. For the same compound, the MBP ([3]; 10 mg/kg i.d., change, 1 hour post-administration) was -21, the MBP ([3]; 10 mg/kg i.d., change, 2 hour post-administration) was -32 and the MBP ([3]; 10 mg/kg i.d., change, 3 hour post-administration) was -43. The MBP ([3]; 10 mg/kg i.d., change, 5 hour post-administration) was -4.3, the MBP ([3]; 10 mg/kg i.d., change, 8 hour post-administration) was -40 and the “PO2 in coronary venous blood” value [4, 12] was 34.7. For the same compound, the “PO2 in coronary venous blood” value [4, 13] was 37.2, the “PO2 in coronary venous blood” value [4, 14] was 39.7 and the “PO2 in coronary venous blood” value [4, 15] was 43.3. The “PO2 in coronary venous blood” value [4, 16] was 43.2, the “PO2 in coronary venous blood” value [4, 17] was 40.0 and the “PO2 in coronary venous blood” value [4, 18] was 17.8. For the same compound, the duration time ([4]; compared with compounds B or C) was “much longer than those of compounds B or C” and the “absorption in case of peroral administration” value ([4]; peroral (intra-duodenal), compared with compounds B or C) was “more easily absorbed than compounds B or C”.
